Data set [1] deals with Rattenleber. Nature of the data set: Bleeding time and blood loss in rats according to Ennen (1981), liver parenchymal bleeding. The data set is classed as in vivo, Ratten. The conditions noted are these: tested oral and IV, standard solutions suspended in 0,9% saline, route of the values not stated. The source says: (§1) Unter einem Hämostypticum versteht man Mittel zur Blutstillung, die sowohl die Blutungszeit als auch den Blutverlust bei mechanischen Verletzungen herabsetzen. Die Blutgerinnung ist ein in den letzten Jahren intensiv untersuchter komplexer Vorgang, der sich in verschiedenster Weise beeinflussen läßt. Die Blutstillung und der Blutverlust hängen wiederum in erster Linie vom Umfang und der Geschwindigkeit der Blutgerinnung ab, jedoch spielen hier auch noch weitere Faktoren mit hinein, die bisher noch nicht ausreichend untersucht und geklärt werden konnten. Eine besondere Schwierigkeit bei der Untersuchung von Hämostyptica ist die Erarbeitung von zuverlässigen und reproduzierbaren Versuchsbedingungen am Menschen und am Tier. Eine umfassende Zusammenstellung der bisher bekannten Methoden sowie die Beschreibung einer verbesserten Methode an der Ratte wird beschrieben in der Dissertation von Ennen 1981, am Institut für Pharmakologie, Toxikologie und Pharmazie der Tierärtzlichen Hochschule Hannover unter Leitung von Prof. Dr. K. Kaemmerer (Methodenbeitrag zur Bestimmung von Blutungszeit und Blutverlust bei Leberparenchymblutungen kleiner Versuchstiere). Im Rahmen dieser Untersuchungen wurden auch verschiedene bekannte Hämostasesysteme vergleichend untersucht. Zu den untersuchten Produkten gehörte auch das Hämostypticum Revici, welches von der Anmelderin seit Jahren vertrieben wird. […] Das Hämostypticum Revici enthält neben geringen Mengen von Zitronensäure, Wasserstoffperoxid und n-Butanol. Da bei der Anwendung des Hämostypticums Revici immer wieder schwankende und nicht immer reproduzierbare Ergebnisse beobachtet wurden, wurden eingehende Untersuchungen über die Wirksamkeit aller drei Komponenten und Gemische derselben auf ihre Wirksamkeit hin untersucht. Dabei dienten als Modelle in erster Linie die bereits von Ennen entwickelten Tiermodelle der Ratten sowie ähnliche Versuche an der Schweineleber. Die Untersuchungen wurden zusätzlich ausgedehnt auf mögliche Metaboliten und Zersetzungsprodukte der Zitronensäure, nämlich Cis-Aconitsäure, Acetondicarbonsäure und Itakonsäure.
Die Wirksamkeit der Substanzen wurde sowohl oral als auch IV getestet mit Standardlösungen suspendiert in 0,9%-iger Kochsalzlösung bei Ratten nach Ennen (1981). Gemessen wurden Blutungszeit und Blutverlust in % der Abnahme. Tributylcitrat ergab eine Abnahme der Blutungszeit von 27% und eine Abnahme des Blutverlustes von 44%. Die entsprechenden Werte für Trihexylcitrat lagen bei 20 bzw. 24%. Die Werte für Aconit-tributylester bei 22 bzw. 16% und für Tricarballylsäure-tributylester bei 29 bzw. 8%.

For data set [2], the system named is Schweineleber. Nature of the data set: Comparative haemostyptic efficacy of components, mixtures and esters in rat models and pig liver. The data set is classed as in vivo, Ratten. As to conditions: qualitative.
Description: as §1, with “Da bei der Anwendung des Hämostypticums Revici immer wieder schwankende und nicht immer reproduzierbare Ergebnisse beobachtet wurden, wurden eingehende Untersuchungen über die Wirksamkeit aller drei Komponenten und Gemische derselben auf ihre Wirksamkeit hin untersucht.” left out

Data set [3] is described as follows: Toxicity of the new esters (test not described). The conditions noted are these: qualitative.
The test system of data set [4] is Schweine. The data set can be described thus: Pig experiments: circulatory effect. The format is in vivo. The conditions noted are these: pigs; amount of n-Butanol present in Hämostypticum Revici, given alone. The source says:
Bei den Schweineversuchen hat sich beispielsweise gezeigt, daß die im Hämostypticum Revici vorhandene Menge n-Butanol für sich allein schon zu Kreislaufdepressionen führt. […] Die Wirksamkeit kann daher nicht dadurch erklärt werden, daß das TBC im Körper zu Zitronensäure und n-Butanol gespalten wird.

Data set [5] has as its system Ratte. As to conditions: rat; Merck Index, 10th ed., no. 1513; cited from earlier work.
Data set [6] is described as follows: Acute toxicity (LD50, oral tolerance) in the rat. The data set is classed as in vivo. The conditions noted are these: in vivo, applicant's own experiments. How it is done: (§2) Hierbei ist zu beachten, daß bei der Ratte als maximale Volumenbelastung 20 ml/kg gelten.
Data set [7] relates to Ratte. Nature of the data set: Acute toxicity (LD50, oral tolerance) in the rat. The data set is classed as in vivo. How it is done:
as §2

In data set [8] the test system is Ratte. The conditions noted are these: rat, in vivo, iv. The protocol: as §2

Entries after “also recorded” stand apart in the source; their conditions may differ.

With `CCCCOC(=O)C=C(CC(=O)OCCCC)C(=O)OCCCC` [Aconit-tributylester], in data set [1], the “Abnahme der Blutungszeit” value is 22% and the “Abnahme des Blutverlustes” value is given as 16%. Also, the “hämostyptische Wirksamkeit” value in data set [2] was “durchaus interessante und für die Praxis brauchbare Wirkung”. Also, the Toxizität entry in data set [3] is recorded as “niedriger Toxizität”.

Consider `CCCCOC(=O)CC(CC(=O)OCCCC)C(=O)OCCCC` [Tricarballylsäure-tributylester], for which, in data set [1], the “Abnahme der Blutungszeit” value amounted to 29% and the “Abnahme des Blutverlustes” value is 8%. Moreover, the “hämostyptische Wirksamkeit” value in data set [2] is given as “durchaus interessante und für die Praxis brauchbare Wirkung”. Also, the Toxizität result in data set [3] was “niedriger Toxizität”.

On to `O=C(O)CC(=O)CC(=O)O` [Acetondicarbonsäure], for which the “hämostyptische Wirksamkeit” value in data set [2] is “praktisch wirkungslos”.

Take `O=C(O)/C=C(/CC(=O)O)C(=O)O` [Cis-Aconitsäure]: the “hämostyptische Wirksamkeit” value in data set [2] was “praktisch wirkungslos”.

In the case of `O=C(O)CC(O)(CC(=O)O)C(=O)O` [Zitronensäure], the “hämostyptische Wirksamkeit” value in data set [2] was “praktisch wirkungslos”.

Take `C=C(CC(=O)O)C(=O)O` [Itakonsäure]: the “hämostyptische Wirksamkeit” value in data set [2] is “praktisch wirkungslos”.

By LD50 is commonly meant the dose expected to kill half of the subjects tested. As for `CCCCO` [n-Butanol], the “hämostyptische Wirksamkeit” value in data set [2] is reported as “eine gewisse hämostyptische Wirksamkeit; also recorded: einen gewissen Effekt”. Also, in data set [4], the Kreislaufwirkung entry was “Kreislaufdepressionen”. Further, the LD50 in data set [5] is given as 4,36 g/kg.

Consider `CCCCOC(=O)CC(O)(CC(=O)OCCCC)C(=O)OCCCC` [TBC, Tri-n-butylcitrat], for which, in data set [1], the “Abnahme der Blutungszeit” value was found to be 27%. The “Abnahme des Blutverlustes” value in data set [1] amounted to 44%. Also, the LD50 in data set [6] was found to be 20800 mg/kg. Besides, the “akute oder klinische manifeste Veränderungen” value in data set [7] (oral 10 ml/kg (printed as 10,4 mg/kg)) and in data set [7] (oral 20 ml/kg (printed as 20,8 mg/kg)) was “keinerlei akute oder klinische manifeste Veränderungen” in each case. For the same molecule, the “spontaner Exitus nach Infusion” value in data set [8] is 19,4 ml/kg.

As to `CCCCCCOC(=O)CC(O)(CC(=O)OCCCCCC)C(=O)OCCCCCC` [Trihexylcitrat], in data set [1], the “Abnahme der Blutungszeit” value was 20% and the “Abnahme des Blutverlustes” value was found to be 24%. For the same molecule, in data set [3], the Toxizität result is on record as “niedriger Toxizität”.

For Wasserstoffperoxid [H202], in data set [2], the “hämostyptische Wirksamkeit” value is recorded as “einen gewissen Effekt”.

The values above are taken from patent EP0166969A2, “Haemostyptic” (priority 1984, dated 1986).
